According to the NIST ThermoML archive (doi:10.1021/je501065g):
± gives the expanded uncertainty stated by the source.

Details: Liquid, Pulse-echo method

## c1ccccc1 [benzene]
283.2 K, 102.1 kPa
  speed of sound: 1372 ± 0.83 m/s
283.2 K, 5280.1 kPa
  speed of sound: 1396 ± 0.84 m/s
283.2 K, 10234 kPa
  speed of sound: 1418.2 ± 0.85 m/s
283.2 K, 15332 kPa
  speed of sound: 1439.9 ± 0.86 m/s
283.2 K, 20204 kPa
  speed of sound: 1460.2 ± 0.87 m/s
283.2 K, 24857 kPa
  speed of sound: 1479 ± 0.88 m/s
283.21 K, 29815 kPa
  speed of sound: 1498.1 ± 0.89 m/s
298.2 K, 84.2 kPa
  speed of sound: 1299.7 ± 0.79 m/s
298.2 K, 5421.7 kPa
  speed of sound: 1327 ± 0.81 m/s
298.2 K, 10069 kPa
  speed of sound: 1349.5 ± 0.82 m/s
298.2 K, 14866 kPa
  speed of sound: 1371 ± 0.83 m/s
298.2 K, 20104 kPa
  speed of sound: 1394.3 ± 0.84 m/s
298.2 K, 25018 kPa
  speed of sound: 1415.8 ± 0.85 m/s
298.2 K, 30106 kPa
  speed of sound: 1436.9 ± 0.86 m/s
313.2 K, 61.2 kPa
  speed of sound: 1230.4 ± 0.76 m/s
313.2 K, 5536.5 kPa
  speed of sound: 1259.8 ± 0.77 m/s
313.2 K, 10140 kPa
  speed of sound: 1283.5 ± 0.78 m/s
313.2 K, 15332 kPa
  speed of sound: 1309 ± 0.8 m/s
313.2 K, 20194 kPa
  speed of sound: 1332.2 ± 0.81 m/s
313.2 K, 25204 kPa
  speed of sound: 1354.8 ± 0.82 m/s
313.2 K, 29980 kPa
  speed of sound: 1375.7 ± 0.83 m/s
333.21 K, 153.7 kPa
  speed of sound: 1139.7 ± 0.72 m/s
333.21 K, 5378.8 kPa
  speed of sound: 1171.4 ± 0.73 m/s
333.21 K, 10149 kPa
  speed of sound: 1198.3 ± 0.74 m/s
333.21 K, 15038 kPa
  speed of sound: 1225 ± 0.76 m/s
333.21 K, 19601 kPa
  speed of sound: 1248.5 ± 0.77 m/s
333.21 K, 24756 kPa
  speed of sound: 1274 ± 0.78 m/s
333.21 K, 30146 kPa
  speed of sound: 1299.2 ± 0.79 m/s
353.2 K, 15092 kPa
  speed of sound: 1146.6 ± 0.72 m/s
353.2 K, 19918 kPa
  speed of sound: 1173.2 ± 0.73 m/s
353.21 K, 172.3 kPa
  speed of sound: 1052.2 ± 0.68 m/s
353.21 K, 5094.9 kPa
  speed of sound: 1084.9 ± 0.69 m/s
353.21 K, 10007 kPa
  speed of sound: 1116.2 ± 0.7 m/s
353.21 K, 24680 kPa
  speed of sound: 1198.7 ± 0.74 m/s
353.21 K, 30063 kPa
  speed of sound: 1226 ± 0.76 m/s

## CCO [ethanol]
253.22 K, 104.2 kPa
  speed of sound: 1304.8 ± 0.7 m/s
253.22 K, 130.2 kPa
  speed of sound: 1305.1 ± 0.7 m/s
253.22 K, 5018.8 kPa
  speed of sound: 1330.4 ± 0.71 m/s
253.22 K, 5283.4 kPa
  speed of sound: 1331.5 ± 0.71 m/s
253.22 K, 10112 kPa
  speed of sound: 1355.4 ± 0.72 m/s
253.22 K, 10246 kPa
  speed of sound: 1355.8 ± 0.72 m/s
253.22 K, 15106 kPa
  speed of sound: 1379.1 ± 0.73 m/s
253.22 K, 15229 kPa
  speed of sound: 1379.4 ± 0.73 m/s
253.22 K, 19991 kPa
  speed of sound: 1401.4 ± 0.74 m/s
253.22 K, 20403 kPa
  speed of sound: 1402.9 ± 0.74 m/s
253.22 K, 24921 kPa
  speed of sound: 1422.9 ± 0.75 m/s
253.22 K, 25022 kPa
  speed of sound: 1423.6 ± 0.75 m/s
253.22 K, 30114 kPa
  speed of sound: 1444.8 ± 0.76 m/s
253.23 K, 30052 kPa
  speed of sound: 1444.5 ± 0.76 m/s
273.2 K, 99.9 kPa
  speed of sound: 1230.8 ± 0.67 m/s
273.2 K, 5193.3 kPa
  speed of sound: 1259.3 ± 0.69 m/s
273.2 K, 10100 kPa
  speed of sound: 1285.4 ± 0.7 m/s
273.2 K, 15284 kPa
  speed of sound: 1311.7 ± 0.7 m/s
273.2 K, 20253 kPa
  speed of sound: 1336 ± 0.72 m/s
273.2 K, 25058 kPa
  speed of sound: 1358.8 ± 0.72 m/s
273.2 K, 25221 kPa
  speed of sound: 1359.3 ± 0.72 m/s
273.2 K, 30203 kPa
  speed of sound: 1381.6 ± 0.73 m/s
273.21 K, 128.6 kPa
  speed of sound: 1231.1 ± 0.67 m/s
273.21 K, 5026.6 kPa
  speed of sound: 1258.5 ± 0.68 m/s
273.21 K, 10148 kPa
  speed of sound: 1285.8 ± 0.7 m/s
273.21 K, 15029 kPa
  speed of sound: 1310.8 ± 0.7 m/s
273.21 K, 20070 kPa
  speed of sound: 1335.2 ± 0.71 m/s
273.21 K, 30338 kPa
  speed of sound: 1382.2 ± 0.73 m/s
293.2 K, 103.7 kPa
  speed of sound: 1160 ± 0.63 m/s
293.2 K, 5339.4 kPa
  speed of sound: 1192 ± 0.65 m/s
293.2 K, 10368 kPa
  speed of sound: 1220.8 ± 0.66 m/s
293.2 K, 15197 kPa
  speed of sound: 1247.2 ± 0.68 m/s
293.2 K, 20222 kPa
  speed of sound: 1273.4 ± 0.69 m/s
293.2 K, 25256 kPa
  speed of sound: 1298.5 ± 0.7 m/s
293.2 K, 30069 kPa
  speed of sound: 1321.4 ± 0.7 m/s
293.21 K, 140 kPa
  speed of sound: 1160.4 ± 0.63 m/s
293.21 K, 5169 kPa
  speed of sound: 1191 ± 0.65 m/s
293.21 K, 9977.3 kPa
  speed of sound: 1218.7 ± 0.66 m/s
293.21 K, 15052 kPa
  speed of sound: 1246.6 ± 0.67 m/s
293.21 K, 20101 kPa
  speed of sound: 1272.9 ± 0.68 m/s
293.21 K, 25034 kPa
  speed of sound: 1297.5 ± 0.69 m/s
293.21 K, 30268 kPa
  speed of sound: 1322.5 ± 0.71 m/s
313.21 K, 103.8 kPa
  speed of sound: 1091.9 ± 0.61 m/s
313.21 K, 121.8 kPa
  speed of sound: 1092.3 ± 0.61 m/s
313.21 K, 5023.3 kPa
  speed of sound: 1124.7 ± 0.62 m/s
313.21 K, 5318.6 kPa
  speed of sound: 1126.5 ± 0.62 m/s
313.21 K, 10011 kPa
  speed of sound: 1155.8 ± 0.63 m/s
313.21 K, 10351 kPa
  speed of sound: 1157.8 ± 0.64 m/s
313.21 K, 14993 kPa
  speed of sound: 1185.1 ± 0.64 m/s
313.21 K, 15238 kPa
  speed of sound: 1186.6 ± 0.65 m/s
313.21 K, 20052 kPa
  speed of sound: 1213.5 ± 0.66 m/s
313.21 K, 20317 kPa
  speed of sound: 1214.8 ± 0.66 m/s
313.21 K, 25163 kPa
  speed of sound: 1240.5 ± 0.67 m/s
313.21 K, 25383 kPa
  speed of sound: 1241.6 ± 0.67 m/s
313.21 K, 30116 kPa
  speed of sound: 1265.6 ± 0.68 m/s
313.21 K, 30384 kPa
  speed of sound: 1266.8 ± 0.68 m/s
333.21 K, 104.1 kPa
  speed of sound: 1024.9 ± 0.59 m/s
333.21 K, 137.3 kPa
  speed of sound: 1025.2 ± 0.59 m/s
333.21 K, 5087.6 kPa
  speed of sound: 1061.2 ± 0.6 m/s
333.21 K, 5212.7 kPa
  speed of sound: 1062.1 ± 0.6 m/s
333.21 K, 10090 kPa
  speed of sound: 1095 ± 0.61 m/s
333.21 K, 10228 kPa
  speed of sound: 1095.9 ± 0.61 m/s
333.21 K, 15025 kPa
  speed of sound: 1126.4 ± 0.62 m/s
333.21 K, 15294 kPa
  speed of sound: 1127.9 ± 0.62 m/s
333.21 K, 19954 kPa
  speed of sound: 1155.9 ± 0.63 m/s
333.21 K, 20181 kPa
  speed of sound: 1157.1 ± 0.64 m/s
333.21 K, 24959 kPa
  speed of sound: 1184.2 ± 0.64 m/s
333.21 K, 25377 kPa
  speed of sound: 1186.4 ± 0.65 m/s
333.21 K, 30028 kPa
  speed of sound: 1211.3 ± 0.66 m/s
333.21 K, 30214 kPa
  speed of sound: 1212.3 ± 0.66 m/s
353.2 K, 103.5 kPa
  speed of sound: 957.73 ± 0.55 m/s
353.21 K, 132.1 kPa
  speed of sound: 957.59 ± 0.55 m/s
353.21 K, 5006 kPa
  speed of sound: 996.76 ± 0.57 m/s
353.21 K, 5137.5 kPa
  speed of sound: 997.75 ± 0.57 m/s
353.21 K, 10089 kPa
  speed of sound: 1034.4 ± 0.58 m/s
353.21 K, 10319 kPa
  speed of sound: 1035.9 ± 0.58 m/s
353.21 K, 15035 kPa
  speed of sound: 1068.3 ± 0.6 m/s
353.21 K, 15211 kPa
  speed of sound: 1069.4 ± 0.6 m/s
353.21 K, 20108 kPa
  speed of sound: 1100.9 ± 0.61 m/s
353.21 K, 20273 kPa
  speed of sound: 1101.7 ± 0.61 m/s
353.21 K, 25007 kPa
  speed of sound: 1130.5 ± 0.62 m/s
353.21 K, 25250 kPa
  speed of sound: 1131.8 ± 0.62 m/s
353.21 K, 30102 kPa
  speed of sound: 1159.5 ± 0.63 m/s
353.21 K, 30289 kPa
  speed of sound: 1160.5 ± 0.63 m/s
